Test results published in patent US12552837B2, “Bicyclic peptide ligands with detectable moieties and uses thereof” (BicycleRD Limited, priority 2017, dated 2026).
*1 amine or outer side, *2 acyl side, *3 side chain or, on linkers, in order; H or OH if unused. Where a SMILES comes first, the peptide text is derived from it. Bridges are numbered along the chain shown (N, C = ends). [ ]: non-standard residue; d: D form. The star is where a group is joined. DOTA = O=C(O)CN1CCN(CC(=O)O)CCN(CC(=O)*)CCN(CC(=O)O)CC1; 1Nal = N[C@@H](Cc1cccc2ccccc12)C(=O)O; TBMB = c1c(C[*:1])cc(C[*:3])cc1C[*:2]; Tle = CC(C)(C)[C@H](N)C(=O)O

Molecular target: MT1-MMP hemopexin domain (Homo sapiens, UniProt P50281)
Experiment: Fluorescence polarization direct binding / competition assay to MT1-MMP hemopexin domain
Protocol: Direct Binding Fluorescence Polarization or Anisotropy Assays are performed by titrating a constant concentration of fluorescent tracer (here, the fluoresceinated bicyclic peptide to be studied) with its binding partner (here, the MT1-MMP hemopexin domain). As the concentration of binding partner increases during the titration, the polarization signal changes in proportion to the fraction of bound and unbound material. This allows determination of […] (Kd) quantitatively. Assay data can be fit using standard ligand binding equations.
Typically, concentrations of the tracer are ideally well below the Kd of the tracer: titrant pair, and concentrations chosen are usually at ˜1 nM or less. The titrant (binding partner) concentration is varied from 0.1 nM up to typically 5 μM. The range is chosen such that the maximum change in fluorescent polarization can be observed. Buffers employed are phosphate buffered saline in the presence of 0.01% Tween. Experiments were run in black 384 well low-bind/low volume plates (Corning 3820), and the fluorescent polarization signal was measured using a BMG Pherastar FS plate reader. Fluorescent tracers referred to in the text are bicyclic peptides that have been fluoresceinated using 5,6-carboxyfluorescein. Fluoresceination may be performed on the N-terminal amino group of the peptide, which is separated from the bicycle core sequence by a sarcosine spacer (usually Sar10 (SEQ ID NO: 73)). This can be done during Fmoc solid phase synthesis or post-synthetically (after cyclization with the molecular scaffold reagent and purification) if the N-terminal amino group is unique to the peptide. Fluoresceination can also be performed on the C-terminus, usually on a Lysine introduced as the first C-terminal residue, which is then separated from the bicycle core sequence by a sarcosine spacer (usually Sar6 (SEQ ID NO: 69)). Thus, N-terminal tracers can have a molecular format described as Fluo-Ala-Sar10-A (SEQ ID NO: 72) (BicycleCoreSequence), and (BicycleCoreSequence)-A-Sar6-K (Fluo) (SEQ ID NO: 67) for a C-terminally fluoresceinated construct.
Fluorescent tracers used in the Examples are A-(17-69)-A-Sar6-K (Fluo) (SEQ ID NO: 67), A-(17-69-07)-A-Sar6-K (Fluo) (SEQ ID NO: 67), and A-(17-69-12)-A-Sar6-K (Fluo) (SEQ ID NO: 67). Due to the acidic nature of the 17-69 fluorescent peptides, they were typically prepared as concentrated DMSO stocks, from which dilution were prepared in 100 mM Tris pH 8 buffer.
Due to their high affinities to the MT1-MMP Hemopexin domain (PEX), the fluoresceinated derivatives of 17-69-07 and 17-69-12 (denoted as 17-69-07-N040 and 17-69-12-N005, respectively) can be used for competition experiments (using FP for detection). […] Dissociation of the complex can be measured quantitatively, and the Kd of the competitor (titrant) to the target protein determined. The advantage of the competition method is that the affinities of non-fluoresceinated bicyclic peptides can be determined accurately and rapidly.
Subsequently, the non-fluorescent competitor bicyclic peptide (usually just the bicycle core sequence) is titrated, such that it displaces the fluorescent tracer from the target protein. The displacement of the tracer is measured and associated with a drop in fluorescence polarization. The drop in fluorescence polarization is proportional to the fraction of target protein bound with the non-fluorescent titrant, and thus is a measure of the affinity of titrant to target protein. […]

C[C@H](NC(=O)CN1CCN(CC(=O)O)CCN(CC(=O)O)CCN(CC(=O)O)CC1)C(=O)N[C@H]1CSCc2cc3cc(c2)CSC[C@H](NC(=O)[C@@H](C)NC(=O)[C@H](Cc2cccc4ccccc24)NC(=O)[C@H](CCC(=O)O)NC(=O)[C@H](CC(N)=O)NC(=O)[C@@H](C)NC1=O)C(=O)N[C@@H](CCC(=O)O)C(=O)N[C@@H](CC(=O)O)C(=O)N[C@@H](Cc1ccccc1)C(=O)N[C@@H](Cc1ccc(O)cc1)C(=O)N[C@@H](CC(=O)O)C(=O)N[C@@H](C(C)(C)C)C(=O)N[C@H](C(N)=O)CSC3 [I-23] ({DOTA}-AC[dA]NE[1Nal][dA]CEDFYD[Tle]C-NH2; linker 2-8-15 via TBMB)
Kd: 0.52 ± 0.24 nM
